Here are results for 18 molecules from ChEMBL document CHEMBL1130829, “Inhibition of human cytomegalovirus protease N(o) with monocyclic beta-lactams” (Bioorg Med Chem Lett, 1998).

The target of one experiment is Cathepsin B (Homo sapiens, UniProt P07858). The experiment in a line: Inhibitory activity against Cathepsin B.
In experiment [1] the target is T1, Capsid scaffolding protein (Human cytomegalovirus (strain AD169) (HHV-5) (Human herpesvirus 5), UniProt P16753).
T1 sequence (P16753 whole entry): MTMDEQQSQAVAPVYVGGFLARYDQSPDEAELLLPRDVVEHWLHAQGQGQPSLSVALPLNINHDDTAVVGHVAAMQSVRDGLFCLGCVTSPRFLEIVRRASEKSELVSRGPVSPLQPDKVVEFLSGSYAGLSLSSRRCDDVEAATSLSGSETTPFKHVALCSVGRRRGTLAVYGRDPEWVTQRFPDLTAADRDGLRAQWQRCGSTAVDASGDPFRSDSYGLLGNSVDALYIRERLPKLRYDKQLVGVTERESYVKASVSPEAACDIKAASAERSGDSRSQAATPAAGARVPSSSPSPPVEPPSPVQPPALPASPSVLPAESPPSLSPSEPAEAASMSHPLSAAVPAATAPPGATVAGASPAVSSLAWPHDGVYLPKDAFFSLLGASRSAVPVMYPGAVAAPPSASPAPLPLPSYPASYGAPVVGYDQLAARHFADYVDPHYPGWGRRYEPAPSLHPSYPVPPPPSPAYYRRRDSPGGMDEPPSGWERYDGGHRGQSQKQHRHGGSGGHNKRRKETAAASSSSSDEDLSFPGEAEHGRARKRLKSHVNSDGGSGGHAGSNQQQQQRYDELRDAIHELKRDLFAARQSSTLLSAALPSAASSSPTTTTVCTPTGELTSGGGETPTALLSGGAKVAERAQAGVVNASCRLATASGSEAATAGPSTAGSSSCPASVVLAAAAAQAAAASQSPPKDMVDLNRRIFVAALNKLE
Put plainly: Inhibitory activity against human cytomegalovirus (HCMV) protease. The arrangement: species or system Human herpesvirus 5 strain AD169.

Another experiment addresses Chymotrypsinogen B (Homo sapiens, UniProt P17538). Put plainly: Inhibitory activity against alpha-chymotrypsin.
For a further experiment, the target named is T2, Neutrophil elastase (Homo sapiens, UniProt P08246).
T2 sequence (P08246 whole entry): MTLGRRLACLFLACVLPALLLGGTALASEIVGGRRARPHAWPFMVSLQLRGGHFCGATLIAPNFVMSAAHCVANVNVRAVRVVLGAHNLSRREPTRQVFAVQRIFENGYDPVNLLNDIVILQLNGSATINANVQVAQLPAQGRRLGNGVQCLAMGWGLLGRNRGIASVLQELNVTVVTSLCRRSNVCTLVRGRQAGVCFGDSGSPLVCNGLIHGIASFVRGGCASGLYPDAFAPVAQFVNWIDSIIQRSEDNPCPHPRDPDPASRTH
Put plainly: Inhibitory activity against human leukocyte elastase protease(HLE).

Bounds are passed on as bounds.

Chymotrypsinogen B, sequence (P17538 34-164 limits assumed, other chains not shown): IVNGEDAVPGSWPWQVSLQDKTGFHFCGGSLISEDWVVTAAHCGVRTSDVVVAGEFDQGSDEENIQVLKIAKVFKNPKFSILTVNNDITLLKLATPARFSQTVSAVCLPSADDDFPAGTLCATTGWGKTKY
Chymotrypsinogen B, sequence (P17538 167-263 limits assumed, other chains not shown): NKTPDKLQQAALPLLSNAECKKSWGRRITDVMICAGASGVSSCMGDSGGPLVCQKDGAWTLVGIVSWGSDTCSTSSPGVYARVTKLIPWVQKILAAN

In the case of `CC(C)C[C@@H](COC1CC(=O)N1C(=O)N[C@@H](C)c1ccccc1)NC(=O)[C@@H](NC(=O)OC(C)(C)C)C(C)(C)C` (stereo partly drawn), the IC50 (usually the concentration that inhibits the measured activity by half) is over 75 µM against Cathepsin B, 0.3 µM in experiment [1], over 75 µM against Chymotrypsinogen B and over 75 µM against Neutrophil elastase.

For the molecule `O=C1CC(SCc2ccccn2)N1C(=O)NCCOCc1ccccc1` (stereo not drawn), the IC50 was over 75 µM against Cathepsin B, 6.4 µM in experiment [1], over 75 µM on Chymotrypsinogen B and over 75 µM against Neutrophil elastase.

As for `C[C@@H](NC(=O)N1C(=O)CC1SCc1ccncc1)c1ccccc1` (stereo partly drawn), the IC50 against Cathepsin B, against Chymotrypsinogen B and against Neutrophil elastase was over 75 µM in each case.

For the molecule `CC(C)C[C@@H](COC1CC(=O)N1C(=O)N[C@H](C)c1ccccc1)NC(=O)[C@@H](NC(=O)OC(C)(C)C)C(C)(C)C` (stereo partly drawn), the IC50 was over 75 µM against Cathepsin B, 1.4 µM in experiment [1], over 75 µM against Chymotrypsinogen B and over 75 µM against Neutrophil elastase.

`C[C@@H](NC(=O)N1C(=O)CC1SCc1cccnc1)c1ccccc1` (stereo partly drawn): the IC50 against Cathepsin B, against Chymotrypsinogen B and on Neutrophil elastase was over 75 µM throughout.

As to `C[C@@H](NC(=O)N1C(=O)CC1SCc1ccc(CC(=O)OC(C)(C)C)cc1)c1ccccc1` (stereo partly drawn), the IC50 is over 75 µM on Cathepsin B, 75 µM in experiment [1], over 75 µM on Chymotrypsinogen B and over 75 µM against Neutrophil elastase.

As to `CC[C@H](NC(=O)N1C(=O)CC1SC[C@H](CC(C)C)NC(=O)[C@@H](NC(=O)CC(C)(C)C)C(C)(C)C)c1ccccc1` (stereo partly drawn), the IC50 was over 75 µM against Cathepsin B, 0.07 µM in experiment [1], over 75 µM at Chymotrypsinogen B and over 75 µM against Neutrophil elastase.

On to `CC[C@@H](NC(=O)N1C(=O)CC1SCc1ccccn1)c1ccccc1` (stereo partly drawn), for which the IC50 at Cathepsin B, on Chymotrypsinogen B and on Neutrophil elastase was over 75 µM in each case.

The molecule `CC(C)C[C@@H](COC1CC(=O)N1)NC(=O)[C@@H](NC(=O)OC(C)(C)C)C(C)(C)C` (stereo partly drawn) came in with a 50% inhibitory concentration (IC50) in experiment [1] of over 300 µM.

On to `CC[C@@H](NC(=O)N1C(=O)[C@@H](C)[C@@H]1SCc1ccccn1)c1ccccc1`, for which the IC50 on Cathepsin B is over 75 µM; at Chymotrypsinogen B, 1.7 µM; on Neutrophil elastase it was under 0.15 µM.

As to `C[C@@H](NC(=O)N1C(=O)CC1SCC(=O)c1ccccc1)c1ccccc1` (stereo partly drawn), the IC50 against Cathepsin B, against Chymotrypsinogen B and against Neutrophil elastase was over 75 µM in each case.

For `C[C@@H](NC(=O)N1C(=O)CC1Sc1ccccc1)c1ccccc1` (stereo partly drawn), the IC50 against Cathepsin B, at Chymotrypsinogen B and against Neutrophil elastase was over 75 µM each time.

As for `CC(C)C[C@@H](CSC1CC(=O)N1C(=O)NCc1ccccc1)NC(=O)[C@@H](NC(=O)OC(C)(C)C)C(C)(C)C` (stereo partly drawn), the values for the IC50 at Cathepsin B, against Chymotrypsinogen B and on Neutrophil elastase were over 75 µM, 0.8 µM and over 75 µM, respectively.

With `C[C@@H](NC(=O)N1C(=O)CC1SCc1ccccn1)c1ccccc1` (stereo partly drawn), the IC50 against Cathepsin B, against Chymotrypsinogen B and against Neutrophil elastase was over 75 µM each time.

On to `O=C1CC(SCc2ccccn2)N1C(=O)N[C@H](CO)c1ccccc1` (stereo partly drawn), for which the IC50 at Cathepsin B, on Chymotrypsinogen B and at Neutrophil elastase was over 75 µM in each case.

In the case of `CC(C)C[C@@H](COC1CC(=O)N1C(=O)NCc1ccccc1)NC(=O)[C@@H](NC(=O)OC(C)(C)C)C(C)(C)C` (stereo partly drawn), the IC50 was over 75 µM against Cathepsin B, 8.3 µM on Chymotrypsinogen B and over 75 µM against Neutrophil elastase.

For `C[C@@H](NC(=O)N1C(=O)CC1SCc1ccccc1)c1ccccc1` (stereo partly drawn), the IC50 at Cathepsin B is over 75 µM; in experiment [1], 2.4 µM; against Chymotrypsinogen B it was over 75 µM; at Neutrophil elastase, over 75 µM.

As to `C[C@@H](NC(=O)N1C(=O)CC1SCCc1ccccc1)c1ccccc1` (stereo partly drawn), the IC50 at Cathepsin B, at Chymotrypsinogen B and against Neutrophil elastase was over 75 µM in each case.
